The target of data set [1] is human aldose reductase (hALR2) (Homo sapiens, UniProt P15121). The data set can be described thus: inhibition of human aldose reductase (hALR2) activity, methods similar to Butera et al. The data set is classed as biochemical. The following applies: concentration to inhibit activity by 50%, read-out: hAR-#1 (aldose). How it is done:
Representative compounds of the invention are tested for their potency, selectivity and efficacy as inhibitors of human aldose reductase. […] Using this assay, the concentrations required to inhibit human aldose reductase (hALR2) activity by 50% (IC50) are determined.

SMILES strings stand for the structures. Counter-ions that a name gives are not always drawn.

9 compounds from patent publication US7361671B2, “Substituted heteroarylalkanoic acids” (The Institute for Pharmaceutical Discovery, Inc., priority 2001, dated 2008) can be followed below.

With `O=C(O)Cc1cnc(Cc2ccccc2)c(Cc2nc3c(F)c(F)cc(F)c3s2)c1` (as salt: hydrochloride) [Example 16, 6-Benzyl-5-(4,5,7-trifluoro-benzothiazol-2-ylmethyl)-pyridin-3-yl-acetic acid hydrochloride], the melting point (usually the temperature of the solid-liquid transition) is 185 °C (dec.).
In the case of `Cc1nc(C)c(Cc2nc3c(F)c(F)cc(F)c3s2)cc1CC(=O)O.Cl` [Example 4, 2,6-Dimethyl-5-(4,5,7-trifluoro-benzothiazole-2-ylmethyl)-pyridin-3-yl-acetic acid hydrochloride], the melting point was 211 °C (dec.). In data set [1], the IC50 was 4 nM.
Taken in the same sequence, the figures for `CCc1nc(CC)c(Cc2nc3c(F)c(F)cc(F)c3s2)cc1CC(=O)O.Cl` [Example 5, [2,6-Diethyl-5-(4,5,7-trifluoro-benzothiazol-2-ylmethyl)-pyridin-3-yl]acetic acid hydrochloride] were 143 to 145 °C and 7 nM.
Taken in the same sequence, the figures for `Cl.O=C(O)Cc1cc(Cc2nc3c(F)c(F)cc(F)c3s2)c(-c2ccccc2)nc1-c1ccccc1` [Example 6, [2,6-Diphenyl-5-(4,5,7-trifluoro-benzothiazol-2-ylmethyl)-pyridin-3-yl]acetic acid hydrochloride] were 84 to 86 °C and 11 nM.
For `CCCc1nc(CCC)c(Cc2nc3c(F)c(F)cc(F)c3s2)cc1CC(=O)O.Cl` [Example 7, [2,6-Dipropyl-5-(4,5,7-trifluoro-benzothiazol-2-ylmethyl)-pyridin-3-yl]acetic acid hydrochloride], in that order: 98 to 100 °C and 7 nM.
Compound `Cc1sc(C)c(Cc2nc3c(F)c(F)cc(F)c3s2)c1CC(=O)O` [Example 18, [2,5-Dimethyl-4-(4,5,7-trifluoro-benzothiazol-2-ylmethyl)-thiophen-3-yl]-acetic acid] showed a melting point of 170 to 171 °C. Besides, the IC50 in data set [1] turned out to be 36 nM.
Turning to `O=C(O)Cc1ccc(Cc2nc3c(F)c(F)cc(F)c3s2)s1` [Example 19, [5-(4,5,7-trifluoro-benzothiazol-2-ylmethyl)-thiophen-2-yl]-acetic acid], the melting point was 132 to 133 °C. Moreover, the IC50 in data set [1] was 27 nM.
As for `O=C(O)Cc1cc(Cc2nc3c(F)c(F)cc(F)c3s2)cs1` [Example 21, [4-(4,5,7-Trifluoro-benzothiazol-2-ylmethyl)-thiophen-2-yl]-acetic acid], the melting point was 144 to 146 °C. In data set [1], the IC50 turned out to be 9 nM.
`O=C(O)Cc1ccsc1Cc1nc2c(F)c(F)cc(F)c2s1` [Example 23, [2-(4,5,7-trifluoro-benzothiazol-2-ylmethyl)-thiophen-3-yl]-acetic acid] displayed a melting point of 142 to 144 °C. In addition, the IC50 in data set [1] is 24 nM.
